Measured values as given in patent US12679845B2, “Crystal form of triazolopyridine-substituted indazole compound and preparation method therefor” (SHENZHEN OPTIMUM BIOLOGICAL TECHNOLOGY CO., LTD, priority 2021, dated 2026).

Tests used:
[1] = tested on: MMTV transcriptional activity (GR); experiment: MMTV_GR transcriptional activation activity assay, luciferase reporter gene in HeLa cells; format: cell-based
Excerpt: Experimental Example 2: In Vitro Assay of Compounds for Activation of MMTV Transcriptional Activity in Luciferase Reporter Gene Screening System
The mouse mammary tumor virus (MMTV) promoter contains specific binding sites that activate GR (GREs). To determine the activity of the compound, a reporter gene (luciferase) was inserted behind the MMTV promoter, and the structure was expressed in a stable manner in the genome of the HeLa cell line. The MMTV promoter was activated using the test compound to induce the luciferase expression, and its activity was detected by luminescence measurements.
The final DMSO experimental concentration was 0.1%.
MMTV_GR Transcriptional Activation Activity Assay
1) Cell inoculation: Fresh cells were inoculated into a 384-well white transparent bottom assay plate at 4×10^3 cells/30 μL/well and incubated in a 37° C., 5% CO2 incubator for 24 hours.
2) Compound preparation: The compound plate was configured before the start of the experiment. […]
4) 30 μL of Bright-Glo fluorescence assay reagent was transferred to the cell plate. […]
6) The fluorescence value was determined using an Envision plate reader. […]
The concentration curve of the test compound was plotted using the graphing software GraphPad Prism5, and the […] value was calculated.

[2] = In vivo PK study in Lewis female rats; details: rat, po 0.3 mg/kg, plasma
Method: The animals were weighed before administration, and the administration volume was calculated based on the body weight.
Approximately 0.2 mL of whole blood sample was collected at the specified time by jugular venipuncture (or other appropriate blood collection site), and the actual blood collection time was recorded in the experimental record. The acceptable error for the collection time point is ±1 minute within 1 hour after administration, and ±5% of the theoretical time for other time points. All blood samples were immediately transferred to labeled commercial centrifuge tubes containing K2-EDTA. After collection, the blood sample was centrifuged at 4° C., 3200 g for 10 minutes to aspirate the supernatant plasma, which was immediately placed in dry ice and then stored at −60° C. or lower for LC-MS/MS analysis.
The concentration of the test sample in plasma was determined by the LC-MS/MS bioanalytical method.

[3] = Hygroscopicity study by dynamic vapor sorption (DVS); format: physicochemical; details: 25° C.; for Hygroscopic weight gain (ΔW): 80% RH compared to 0% RH
Method: • Instrument model: TA Discovery TGA 5500 thermal gravimetric analyzer • Test method: The sample (2 to 5 mg) is placed in a platinum pot and tested under the protection of 25 mL/min dry nitrogen, and the method is: heating from room temperature to 350° C. at a rate of 10° C./min. Dynamic Vapor Sorption (DVS) Method of the Present Disclosure • Instrument model: SMS (Surface Measurement Systems) dynamic vapor sorption analyzer • Test conditions: The sample (10 to 15 mg) is taken and placed in a DVS sample dish for testing.
The detailed DVS parameters are as follows: • Temperature: 25° C. • Equilibrium: dm/dt=0.002%/min (minimum: 10 min, maximum: 180 min) • Drying: drying for 120 min under 0% RH RH (%) Test Gradient: • 10% (0% RH to 90% RH, 90% RH to 0% RH) • 5% (90% RH to 95% RH, 95% RH to 90% RH) RH (%) • RH (%) test gradient range: 0% to 95%
SMS DVS Advantage dynamic vapor sorption analyzer
10 to 15 mg of the crystal form S of the compound of formula (I) was taken and placed in a DVS sample disk for testing.

[4] = Solid stability test (XRPD) under high temperature, high humidity and strong light; format: physicochemical
Excerpt: For samples placed under high temperature and high humidity conditions, the vial was sealed with aluminum foil punched with small holes to ensure that the samples could fully contact with the ambient air; for samples placed under strong light conditions, the vial was sealed with a threaded cap. The samples placed under different conditions were sampled and detected (XRPD) on day 5, day 10, and month 3, and the results were compared with the initial results on day 0.

| Structure (SMILES) | EC50 ([1]; Homo sapiens, 20 to 24 h, read-out: TA (MMTV transcriptional activation activity) EC50) | TA (MMTV transcriptional activation activity) Effect ([1]; positive control 1000 nM Dexamethasone) | AUC [2] | Cmax [2] | Tmax [2] | half-life [2] | Classification of hygroscopicity ([3]; 80% RH) | Hygroscopic weight gain (ΔW) ([3]; listed as crystal form Q of the compound of formula (I)) | Crystal form (XRPD) ([4]; Day 0, initial) | Crystal form (XRPD) ([4]; High humidity (room temperature/relative humidity: 92.5%, open), Day 5) | Crystal form (XRPD) ([4]; High humidity (room temperature/relative humidity: 92.5%, open), Day 10) | Crystal form (XRPD) ([4]; High humidity (room temperature/relative humidity: 92.5%, open), Month 3) | Crystal form (XRPD) ([4]; High temperature (60° C., open), Day 5) | Crystal form (XRPD) ([4]; High temperature (60° C., open), Day 10) | Crystal form (XRPD) ([4]; High temperature (60° C., open), Month 3) | Crystal form (XRPD) ([4]; Strong light (5000 lx, sealed), Day 5) | Crystal form (XRPD) ([4]; Strong light (5000 lx, sealed), Day 10) | Crystal form (XRPD) ([4]; Strong light (5000 lx, sealed), Month 3) | Hygroscopic weight gain (ΔW) [3] |
| --- | --- | --- | --- | --- | --- | --- | --- | --- | --- | --- | --- | --- | --- | --- | --- | --- | --- | --- | --- |
| CC(C)[C@H](NC(=O)C(C)(F)F)[C@H](Oc1ccc2c(cnn2-c2ccc3nncn3c2)c1)c1ccccc1 [listing 1 of 2 here] | 7.72 nM | 63.86% | 3.15 µM·h | 361 nM | 4.5 h | 3.57 h | slightly hygroscopic | 0.21% | Crystal form Q | Crystal form Q | Crystal form Q | Crystal form Q | Crystal form Q | Crystal form Q | Crystal form Q | Crystal form Q | Crystal form Q | Crystal form Q |  |
| CC(C)[C@H](NC(=O)C(C)(F)F)[C@H](Oc1ccc2c(cnn2-c2ccc3nncn3c2)c1)c1ccccc1 [listing 2 of 2 here] |  |  |  |  |  |  |  |  |  |  |  |  |  |  |  |  |  |  | 0.6% |
